One sequence from patent US20260209823A1, “KINASE/PHOSPHATASE SUBSTRATE ANALYSIS AND COMPOSITIONS USING SPECTRALLY ENCODED MICROBEADS” (CZ Biohub SF, LLC, priority 2022, published 2026) can be followed below.

The assay concerns Protein phosphatase 1 (PP1). The assay is described as follows: Bead-based multiplexed phosphatase activity assay (pIMAGO detection on spectrally encoded beads). Format: biochemical. The note with it: beads incubated with PP1 versus buffer only. How it is done:
FIG. 2A-B: Overview and example data from bead-based multiplexed phosphatase activity assay. A) Experimental setup of phosphatase assay. Beads with indicated peptides are incubated with either PP1 (top) or Buffer only (bottom). The beads are washed and the phopsphorylation status of the peptides on the beads is detected using pImago. The beads are analyzed using a microscope capable of exciting beads with UV light and then identifying the spectral code embedded within each bead. B) Preliminary data showing the effect of PP1 phosphatase treatment on the phosphorylation status of the TSFFXGISPIEEEAH peptide (X indicates phosphorylated Serine).
An assay to measure dephosphorylation is performed by incubating the (phospho) substrate peptides, e.g., synthesized directly on the encoded beads, with a phosphatase of interest. […] These images can then be analyzed using open-source image analysis software, e.g., Harink et al., PLOS ONE 2019, to identify the code (and thus the peptide sequence) and amount of phosphorylation associated with each bead. The ratio of phosphorylation detected between a control reaction in the absence of the phosphatase and in the presence of the phosphatase allows determination of how efficiently different peptide sequences are dephosphorylated. […]

Non-standard residues stand in square brackets, D forms with d. No end group written: not given here. pS = N[C@@H](COP(=O)(O)O)C(=O)O

For TSFFXGISPIEEEAH (TSFF[pS]GISPIEEEAH), the “pIMAGO signal (phosphorylation status of bead-bound peptide) after PP1 treatment” value was “loss of the signal”.
